In publication PMC12586182 (Frontiers in Oncology, 2025):
Entries after “also recorded” stand apart in the source; their conditions may differ. Where two headings read alike, the source gives them in different places.

Columns and labels:
AN3-CA = assay: Cell viability assay (ATPlite); type: cell-based, human; details: AN3-CA cell line, 72 hours incubation
Method: (§1) Intracellular ATP content was used as an indirect readout of cell number using the ATPlite 1Step bioluminescence assay (Revvity, Groningen, the Netherlands). Cells were seeded in 384-well plates at an optimized density to ensure unrestricted growth and maximal signal at the end of the experiment. After 24 hours of incubation, the starting cell number was determined by adding ATPlite to each well of a control plate and recording luminescence on an Envision multimode reader (Revvity, Waltham, MA, USA) ([4]). Compounds were diluted in DMSO in √10-fold steps from 10 mmol/L stocks to obtain 9-point dilution series. After further 31.6-fold dilution in 20 mmol/L HEPES (pH 7.4), the dilution series were added in duplicate to the cells in the 384-well plates to determine the effect of the compounds on cell viability. Vehicle-treated controls were included to determine maximal cell proliferation. The final DMSO concentration was 0.4% (v/v) in all wells. After incubation for an additional 72 hours, the ATP content was measured in each well using ATPlite. The luminescent signal in inhibitor-treated wells was normalized to vehicle-treated control wells to determine the percentage viability at each concentration. Cell doublings were determined by relating the cell number of vehicle-treated controls to the starting cell number for each cell line. The viability assay of a cell line was repeated when the cell doubling deviated > 2-fold from the historic doubling as determined by multiple independent experiments. The quality of the complete assay was determined by a parallel test with doxorubicin on two cell lines. IC50 values were calculated by fitting a four-parameter logistic model to the percentage viability values using IDBS XLfit5 (IDBS, Guildford, United Kingdom). All curves were visually inspected and submitted to an F-test as implemented in IDBS XLfit5. Curves with an F-value above 1.5 were invalidated and IC50 values were maximized at the highest concentration.

KATO III = assay: Cell viability assay (ATPlite); type: cell-based, human; details: KATO III cell line, 72 hours incubation
Method: as §1

KG-1 = assay: Cell viability assay (ATPlite); type: cell-based, human; details: KG-1 cell line, 72 hours incubation
Method: as §1

RT-4 = assay: Cell viability assay (ATPlite); type: cell-based, human; details: RT-4 cell line, 72 hours incubation
Method: as §1

MEK2 = molecular target: T1, MEK2 (Homo sapiens, UniProt P36507); assay: Kinase enzyme activity assay (ELISA, in-house); type: biochemical
T1 construct: purchased Carna Biosciences, Inc. 07-42

[1] = system: panel of 160 human cancer cell lines; assay: Cancer cell panel profiling in cell viability assays (ATPlite); type: cell-based
Description: A panel of 160 cancer cell lines was used in this study. […]. Cell lines were purchased from the American Type Culture Collection (ATCC) (Manassas, VA, USA), the German Collection of Microorganisms and Cell Cultures (DSMZ) (Braunschweig, Germany), the RIKEN BioResource Research Center (Tsukuba, Ibaraki, Japan) or the Japanese Collection of Research Bioresources (JCRB) (Ibaraki City, Osaka, Japan). All cell lines were propagated in the cell culture media as indicated in Supplementary Table S1 . Cell viability assays were carried out within ten passages of the original vials. The authenticity of the ATCC and DSMZ cell lines has been confirmed by short tandem repeat analysis at both institutions. […]
Intracellular ATP content was used as an indirect readout of cell number using the ATPlite 1Step bioluminescence assay (Revvity, Groningen, the Netherlands). […] After 24 hours of incubation, the starting cell number was determined by adding ATPlite to each well of a control plate and recording luminescence on an Envision multimode reader (Revvity, Waltham, MA, USA) ([4]). […] After incubation for an additional 72 hours, the ATP content was measured in each well using ATPlite. […] Cell doublings were determined by relating the cell number of vehicle-treated controls to the starting cell number for each cell line. […]

[2] = molecular target: biotinylated, inactive MEK1 (Homo sapiens, UniProt Q02750); assay: biochemical
activated B-RAF [3] = molecular target: T2, activated B-RAF (Homo sapiens, UniProt P15056); assay: biochemical
activated B-RAF [4] = molecular target: T2, activated B-RAF; assay: Surface plasmon resonance binding (Biacore 1S+)
B-RAF = B-RAF (Homo sapiens, UniProt P15056); assay: Kinase enzyme activity assay at 1 mmol/L ATP (Carna)
Method: (§2) Inhibition of MLK1 and B-RAF at K M,ATP was determined in a radiometric assay using ^32P-labeled ATP at Eurofins Cerep SA (Celle-Lévescault, France).

B-RAF [V600E] = B-RAF [V600E] (Homo sapiens, UniProt P15056, V600E); assay: as above
Chain of B-RAF [V600E] (P15056 whole entry V600E): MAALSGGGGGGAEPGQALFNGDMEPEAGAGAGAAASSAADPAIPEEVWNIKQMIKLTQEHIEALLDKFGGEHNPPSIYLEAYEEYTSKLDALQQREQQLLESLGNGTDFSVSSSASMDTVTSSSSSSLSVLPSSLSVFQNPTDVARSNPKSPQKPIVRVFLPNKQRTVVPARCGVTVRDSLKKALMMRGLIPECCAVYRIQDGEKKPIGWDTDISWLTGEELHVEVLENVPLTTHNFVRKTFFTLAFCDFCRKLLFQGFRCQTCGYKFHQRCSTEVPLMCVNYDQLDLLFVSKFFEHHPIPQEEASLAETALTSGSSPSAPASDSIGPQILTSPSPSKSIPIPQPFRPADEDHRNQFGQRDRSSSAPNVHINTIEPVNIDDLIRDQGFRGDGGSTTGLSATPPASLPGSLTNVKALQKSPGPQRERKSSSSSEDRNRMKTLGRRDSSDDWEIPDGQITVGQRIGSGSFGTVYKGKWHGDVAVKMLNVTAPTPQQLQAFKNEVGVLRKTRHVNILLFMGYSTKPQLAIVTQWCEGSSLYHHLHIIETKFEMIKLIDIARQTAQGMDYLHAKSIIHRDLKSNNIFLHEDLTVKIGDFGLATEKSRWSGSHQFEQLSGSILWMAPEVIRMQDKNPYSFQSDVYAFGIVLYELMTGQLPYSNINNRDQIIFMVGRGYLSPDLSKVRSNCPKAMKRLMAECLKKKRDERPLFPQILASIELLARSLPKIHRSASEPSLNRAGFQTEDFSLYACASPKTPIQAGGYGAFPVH
Method: as §2

T2 sequence (P15056 whole entry): as the sequence (P15056 whole entry V600E) above, with E600V counted along it
T1 sequence (P36507 whole entry): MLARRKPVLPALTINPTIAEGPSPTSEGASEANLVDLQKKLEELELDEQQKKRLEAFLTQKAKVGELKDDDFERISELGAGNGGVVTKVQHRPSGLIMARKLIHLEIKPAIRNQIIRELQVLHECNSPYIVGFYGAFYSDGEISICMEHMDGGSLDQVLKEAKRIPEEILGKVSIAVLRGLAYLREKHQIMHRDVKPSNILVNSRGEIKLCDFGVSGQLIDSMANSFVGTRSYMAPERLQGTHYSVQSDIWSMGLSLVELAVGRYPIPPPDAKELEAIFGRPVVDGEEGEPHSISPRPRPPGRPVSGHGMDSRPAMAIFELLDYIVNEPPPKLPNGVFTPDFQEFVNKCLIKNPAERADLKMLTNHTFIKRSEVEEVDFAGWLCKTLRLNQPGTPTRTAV
Chain of biotinylated, inactive MEK1 (Q02750 whole entry): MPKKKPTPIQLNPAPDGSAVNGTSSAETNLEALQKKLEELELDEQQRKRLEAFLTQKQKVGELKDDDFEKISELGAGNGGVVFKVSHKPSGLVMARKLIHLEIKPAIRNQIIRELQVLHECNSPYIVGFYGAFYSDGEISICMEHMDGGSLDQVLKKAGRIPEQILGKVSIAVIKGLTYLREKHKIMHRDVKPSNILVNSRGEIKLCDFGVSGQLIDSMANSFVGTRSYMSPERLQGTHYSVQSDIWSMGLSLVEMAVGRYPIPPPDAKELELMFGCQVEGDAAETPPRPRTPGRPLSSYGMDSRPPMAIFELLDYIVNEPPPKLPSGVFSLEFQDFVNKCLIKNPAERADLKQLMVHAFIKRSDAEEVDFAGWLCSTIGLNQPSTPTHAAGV
Chain of B-RAF (P15056 whole entry): as the sequence (P15056 whole entry V600E) above, with E600V counted along it

SMILES: O=C(c1ccc(Oc2ccccc2)cc1Cl)c1c[nH]c2ncnc(N[C@@H]3CC[C@@H](CO)OC3)c12 [nemtabrutinib]
- IC50 (AN3-CA): 1190 nM
- IC50 (AN3-CA; Homo sapiens, AN3-CA, 72 h): 1100 nM
- IC50 (KATO III; Homo sapiens, KATO III, 72 h): 1100 nM
- IC50 (KATO III): 1120 nM
- IC50 (KG-1; Homo sapiens, KG-1, 72 h): 1400 nM
- IC50 (KG-1): 1410 nM
- IC50 (RT-4; Homo sapiens, RT-4, 72 h): 1700 nM
- IC50 (RT-4): 1700 nM
- IC50 (MEK2; 1 mmol/L ATP, read-out: IC50, MEK2): 494 nM
- IC50 (MEK2; IC50, MEK2): 9.5 nM
- Extent of inhibition of viability ([1]; SU-DHL-6 and REC-1 cells, dose-response curves): almost complete inhibition of viability
- Sensitivity of BRAF-mutant versus BRAF wild-type cell lines ([1]; average over cell panel, ANOVA): three times higher; also recorded: three times more sensitive
- Kd [2]: 10 nM
- Kd (activated B-RAF [3]): 1200 nM
- difference in affinity, MEK1 versus B-RAF (activated B-RAF [4]; SPR K D B-RAF versus K D MEK1): 120 fold
- log (kd) (activated B-RAF [4]; SPR, B-RAF): -1.26
- log(ka) (activated B-RAF [4]; SPR, B-RAF): 4.66
- t1/2 (activated B-RAF [4]; SPR, B-RAF): 12.5 s
- IC50 (B-RAF): 335 nM
- IC50 (B-RAF [V600E]): 220 nM
